Test results published in PubChem BioAssay (NCI).
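Each compound was tested at five concentrations against cells in 96-well plates for 48 hours. TGI denotes the concentration required for complete inhibition of growth.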

Legend:
Assay in all cases: DTP human tumour cell line panel, 48 h
[1] = test system: CAKI-1 renal
[2] = test system: SNB-75 CNS
[3] = test system: SN12C renal
[4] = test system: HCC-2998 colon
[5] = test system: NCI-H460 lung
[6] = test system: SK-MEL-5 melanoma
[7] = test system: M14 melanoma
[8] = test system: UO-31 renal
[9] = test system: HCT-15 colon
[10] = test system: UACC-257 melanoma
[11] = test system: SF-268 CNS
[12] = test system: RXF-631 renal
[13] = test system: CCRF-CEM leukemia
[14] = test system: COLO 205 colon
[15] = test system: KM20L2 colon
[16] = test system: XF 498 CNS
[17] = test system: OVCAR-5 ovarian
[18] = test system: MALME-3M melanoma
[19] = test system: SK-MEL-2 melanoma
[20] = test system: OVCAR-8 ovarian
[21] = test system: M19-MEL melanoma
[22] = test system: A498 renal
[23] = test system: SK-MEL-28 melanoma
[24] = test system: LOX IMVI melanoma
[25] = test system: RPMI-8226 leukemia
[26] = test system: 786-0 renal
[27] = test system: HT29 colon
[28] = test system: IGROV1 ovarian
[29] = test system: UACC-62 melanoma
[30] = test system: K-562 leukemia
[31] = test system: SNB-19 CNS
[32] = test system: HOP-92 NSCLC
[33] = test system: TK-10 renal
[34] = test system: SK-OV-3 ovarian
[35] = test system: HOP-18 NSCLC
[36] = test system: SR leukemia
[37] = test system: DMS 273 small cell lung
[38] = test system: OVCAR-4 ovarian
[39] = test system: A549 NSCLC
[40] = test system: U251 CNS
[41] = test system: KM12 colon
[42] = test system: SF-295 CNS
[43] = test system: DMS 114 small cell lung
[44] = test system: HOP-62 NSCLC
[45] = test system: NCI-H226 lung
[46] = test system: SW-620 colon
[47] = test system: LXFL 529 NSCLC
[48] = test system: NCI-H23 lung
[49] = test system: MOLT-4 leukemia
[50] = test system: DLD-1 colon
[51] = test system: EKVX NSCLC
[52] = test system: OVCAR-3 ovarian
[53] = test system: SF-539 CNS
[54] = test system: SNB-78 CNS
[55] = test system: NCI-H522 lung
[56] = test system: ACHN renal
[57] = test system: HL-60(TB) leukemia
[58] = test system: RXF 393 renal
[59] = test system: HCT-116 colon

## NC(=Nc1ccc(S(=O)(=O)Nc2cnc3ccccc3n2)cc1)/N=C(/N)Nc1ccc(Br)cc1
[1]
  TGI: > 100 µM
[2]
  TGI: > 100 µM
[3]
  TGI: > 100 µM
[4]
  TGI: > 100 µM
[5]
  TGI: > 100 µM
[6]
  TGI: > 100 µM
[7]
  TGI: > 100 µM
[8]
  TGI: > 100 µM
[9]
  TGI: > 100 µM
[10]
  TGI: > 100 µM
[11]
  TGI: > 100 µM
[12]
  TGI: > 100 µM
[13]
  TGI: > 100 µM
[14]
  TGI: > 100 µM
[15]
  TGI: > 100 µM
[16]
  TGI: > 100 µM
[17]
  TGI: > 100 µM
[18]
  TGI: > 100 µM
[19]
  TGI: > 100 µM
[20]
  TGI: > 100 µM
[21]
  TGI: > 100 µM
[22]
  TGI: > 100 µM
[23]
  TGI: > 100 µM
[24]
  TGI: > 100 µM
[25]
  TGI: > 100 µM
[26]
  TGI: > 100 µM
[27]
  TGI: > 100 µM
[28]
  TGI: > 100 µM
[29]
  TGI: > 100 µM
[30]
  TGI: > 100 µM
[31]
  TGI: > 100 µM
[32]
  TGI: > 100 µM
[33]
  TGI: > 100 µM
[34]
  TGI: > 100 µM
[35]
  TGI: > 100 µM
[36]
  TGI: > 100 µM
[37]
  TGI: > 100 µM
[38]
  TGI: > 100 µM
[39]
  TGI: > 100 µM
[40]
  TGI: > 100 µM
[41]
  TGI: > 100 µM
[42]
  TGI: > 100 µM
[43]
  TGI: > 100 µM
[44]
  TGI: > 100 µM
[45]
  TGI: > 100 µM
[46]
  TGI: > 100 µM
[47]
  TGI: > 100 µM
[48]
  TGI: > 100 µM
[49]
  TGI: > 100 µM
[50]
  TGI: > 100 µM
[51]
  TGI: > 100 µM
[52]
  TGI: > 100 µM
[53]
  TGI: > 100 µM
[54]
  TGI: > 100 µM
[55]
  TGI: > 100 µM
[56]
  TGI: > 100 µM

## COc1ccc(/C=N/Nc2nc(-c3cc4oc(=O)n(C)c4cc3Cl)cs2)cc1OC
[1]
  TGI: > 100 µM
[2]
  TGI: 69.5 µM
[3]
  TGI: 88.5 µM
[4]
  TGI: > 100 µM
[5]
  TGI: > 100 µM
[6]
  TGI: 14.7 µM
[7]
  TGI: > 100 µM
[8]
  TGI: > 100 µM
[9]
  TGI: 91.8 µM
[57]
  TGI: > 100 µM
[10]
  TGI: > 100 µM
[11]
  TGI: > 100 µM
[12]
  TGI: > 100 µM
[13]
  TGI: > 100 µM
[58]
  TGI: 62.6 µM
[14]
  TGI: > 100 µM
[15]
  TGI: > 100 µM
[16]
  TGI: 88.5 µM
[17]
  TGI: > 100 µM
[18]
  TGI: > 100 µM
[19]
  TGI: > 100 µM
[20]
  TGI: > 100 µM
[21]
  TGI: > 100 µM
[23]
  TGI: > 100 µM
[24]
  TGI: > 100 µM
[25]
  TGI: > 100 µM
[26]
  TGI: > 100 µM
[27]
  TGI: > 100 µM
[28]
  TGI: 51 µM
[29]
  TGI: > 100 µM
[30]
  TGI: > 100 µM
[31]
  TGI: > 100 µM
[32]
  TGI: 77.1 µM
[33]
  TGI: > 100 µM
[59]
  TGI: > 100 µM
[34]
  TGI: > 100 µM
[35]
  TGI: > 100 µM
[36]
  TGI: > 100 µM
[37]
  TGI: > 100 µM
[38]
  TGI: 31.9 µM
[39]
  TGI: 36.2 µM
[40]
  TGI: > 100 µM
[41]
  TGI: > 100 µM
[42]
  TGI: > 100 µM
[43]
  TGI: 39 µM
[44]
  TGI: > 100 µM
[46]
  TGI: > 100 µM
[47]
  TGI: > 100 µM
[48]
  TGI: > 100 µM
[49]
  TGI: > 100 µM
[50]
  TGI: > 100 µM
[51]
  TGI: > 100 µM
[52]
  TGI: > 100 µM
[53]
  TGI: > 100 µM
[54]
  TGI: > 100 µM
[56]
  TGI: 62.3 µM

## COC(=O)C1CC(C(=O)OC)c2nc3cc([N+](=O)[O-])ccc3nc21 (stereo not given)
[1]
  TGI: > 100 µM
[2]
  TGI: > 100 µM
[3]
  TGI: > 100 µM
[4]
  TGI: > 59.1 µM
[5]
  TGI: > 100 µM
[6]
  TGI: > 100 µM
[7]
  TGI: > 100 µM
[8]
  TGI: 98.9 µM
[9]
  TGI: > 100 µM
[57]
  TGI: > 86.8 µM
[10]
  TGI: > 100 µM
[11]
  TGI: > 100 µM
[12]
  TGI: > 100 µM
[13]
  TGI: > 100 µM
[58]
  TGI: > 100 µM
[14]
  TGI: > 100 µM
[15]
  TGI: > 100 µM
[16]
  TGI: > 100 µM
[17]
  TGI: > 100 µM
[18]
  TGI: > 100 µM
[19]
  TGI: > 100 µM
[20]
  TGI: > 100 µM
[21]
  TGI: > 100 µM
[22]
  TGI: > 100 µM
[23]
  TGI: > 100 µM
[24]
  TGI: > 31.6 µM
[25]
  TGI: > 100 µM
[26]
  TGI: > 100 µM
[27]
  TGI: > 100 µM
[28]
  TGI: > 100 µM
[29]
  TGI: > 100 µM
[30]
  TGI: > 100 µM
[31]
  TGI: > 100 µM
[32]
  TGI: > 100 µM
[33]
  TGI: > 100 µM
[59]
  TGI: > 100 µM
[34]
  TGI: > 100 µM
[35]
  TGI: > 100 µM
[37]
  TGI: > 100 µM
[38]
  TGI: > 100 µM
[39]
  TGI: > 100 µM
[40]
  TGI: > 100 µM
[41]
  TGI: > 100 µM
[42]
  TGI: > 100 µM
[43]
  TGI: > 100 µM
[44]
  TGI: > 100 µM
[45]
  TGI: > 100 µM
[46]
  TGI: > 100 µM
[47]
  TGI: > 100 µM
[48]
  TGI: > 100 µM
[49]
  TGI: > 100 µM
[50]
  TGI: > 100 µM
[51]
  TGI: > 100 µM
[52]
  TGI: > 100 µM
[53]
  TGI: > 100 µM
[54]
  TGI: > 100 µM
[55]
  TGI: > 64.7 µM
[56]
  TGI: > 100 µM
